# Patent publication US4689345A, “Oxygenated alkyl substituted bicyclo alkanes” (CBD Corporation, priority 1986, dated 1987)
# Entries after “also recorded” stand apart in the source; their conditions may differ.
# Experiments:
# human fibroblast cells [1] = experiment: Elastin production by fibroblast cells; assay type: cell-based
# Description: (§1) Experiments generally following the methodology of Boote et al., Biochimica et Biophysica Acta, Volume 607, pages 145-160 (1980), have shown that while control human fibroblast cells have copious collagen production, treatment with the compounds of the invention provides human fibroblast cells with suppressed collagen production and with an about 30% increase in elastin production over control cells.
# (§2) Wrinkling of the skin involves the decreased formation of elastin and the increased formation of collagen by supporting cells, predominantly the fibroblasts.
# human fibroblast cells [2] = experiment: Collagen production by fibroblast cells; assay type: cell-based; conditions: treated vs control cells
# Description: as §1, §2
# [3] = system: estrogen receptor (keloid cytosol); experiment: Keloid cytosol steroid binding assay, estrogen; set-up: species or system human
Molecule,formation of elastin (human fibroblast cells [1]; Example 45),increase in elastin production over control cells (human fibroblast cells [1]; treated vs control (non-treated) fibroblast cells),collagen production/formation (human fibroblast cells [2]),"estrogen binding, male patients ([3]; male patients)",Binding of Estrogen ([3]; patient 1),Binding of Estrogen ([3]; patient 2)
"CCOC(CC)CCCCC1CCC2CC(=O)CC12 (stereo not drawn) [Compound VI, 2-(5-ethoxyhept-1-yl)bicyclo[3.3.0]octan-7-one]",massive observable increase in the formation of elastin,~30%,decrease in collagen production; also recorded: decreased,–,–,–
Estrogen,–,–,–,neither detectable,9,4
